Source: US10363239B2, “Method for inhibiting growth of cancer cells” (Pain Therapeutics, Inc., priority 2013, dated 2019)
Where two headings read alike, the source gives them in different places.

Experiments:
mu opiate receptor (MOR) = experiment: MOR agonist activity using [35S]GTPγS binding assay in striatal membranes; assay type: biochemical; details: for MOR agonist activity ([35S]GTPγS binding), FLNA-Binding Compound as Agonist 1 μM + BFNA: 1 μM compound + 1 μM β-funaltrexamine
How it was run: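 Striatal membranes (200 μg) were preincubated 5 min at 30 °C in HEPES pH 7.5 with 100 mM NaCl, 1 mM MgCl2 and 0.5 nM [35S]GTPγS, then 5 min more with 0.1–10 μM compound. Gαo was immunoprecipitated and bound radioactivity counted by scintillation.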

[1] = molecular target: FLNA pentapeptide of SEQ ID NO: 1 (Bn-VAKGL) (Homo sapiens, UniProt P21333); experiment: FITC-NLX-based FLNA screening assay (inhibition of FITC-naloxone binding to Bn-VAKGL on streptavidin plates); details: 10 nM FITC-NLX
[2] = Series B, 0.1 μM compound, relative to DAMGO
[3] = Series B, 0.1 μM compound, [35S]GTPγS binding to Gαo, striatal membranes
[4] = Series B, 1 μM compound + 1 μM β-FNA
[5] = Series B, 1 μM compound + β-FNA, relative to DAMGO + BFNA
[6] = Series B, 1 μM compound, relative to DAMGO
[7] = Series B, 1 μM compound, [35S]GTPγS binding to Gαo, striatal membranes
[8] = read-out: Percent Binding Inhibition, FLNA-binding compound 0.01 μM
[9] = read-out: Percent Binding Inhibition, FLNA-binding compound 0.1 μM
[10] = read-out: Percent Binding Inhibition, FLNA-binding compound 1 μM
[11] = 0.1 μM compound relative to DAMGO
[12] = 1 μM compound + BFNA relative to DAMGO + BFNA
[13] = 1 μM compound relative to DAMGO
[14] = FLNA-binding compound 0.01 μM, read-out: Percent Binding Inhibition
[15] = FLNA-binding compound 0.1 μM, read-out: Percent Binding Inhibition
[16] = FLNA-binding compound 1 μM, read-out: Percent Binding Inhibition

| Compound | % DAMGO (0.1 μM) (mu opiate receptor (MOR); [2]) [%] | MOR agonist activity, percent [35S]GTPγS binding at the stated compound concentration (mu opiate receptor (MOR); [3]) [%] | MOR agonist activity, percent [35S]GTPγS binding at the stated compound concentration (mu opiate receptor (MOR); [4]) [%] | % DAMGO + BFNA (mu opiate receptor (MOR); [5]) [%] | % DAMGO (1 μM) (mu opiate receptor (MOR); [6]) [%] | MOR agonist activity, percent [35S]GTPγS binding at the stated compound concentration (mu opiate receptor (MOR); [7]) [%] | inhibition at 0.01 µM [1, 8] [%] | inhibition at 0.1 µM [1, 9] [%] | inhibition at 1 µM [1, 10] [%] | MOR agonist activity ([35S]GTPγS binding), FLNA-Binding Compound as Agonist 0.1 μM (mu opiate receptor (MOR); 0.1 μM compound) [%] | % DAMGO (0.1 μM) (mu opiate receptor (MOR); [11]) [%] | MOR agonist activity ([35S]GTPγS binding), FLNA-Binding Compound as Agonist 1 μM (mu opiate receptor (MOR); 1 μM compound) [%] | MOR agonist activity ([35S]GTPγS binding), FLNA-Binding Compound as Agonist 1 μM + BFNA (mu opiate receptor (MOR)) [%] | % DAMGO + BFNA (mu opiate receptor (MOR); [12]) [%] | % DAMGO (1 μM) (mu opiate receptor (MOR); [13]) [%] | further results |
| --- | --- | --- | --- | --- | --- | --- | --- | --- | --- | --- | --- | --- | --- | --- | --- | --- |
| COc1ccccc1CC(O)CC1c2c(cc3c(c2OC)OCO3)CC[N+]1(C)C (stereo not drawn) [Compound B0032] | 115.0 | 221.1 | 15.6 | 35.5 | 109.0 | 297.7 | 45.1 | 51.3 | 48.9 | – | – | – | – | – | – | – |
| CC1CCC(C(C)C)C(OCC(O)CN2CCC(=O)CC2)C1 (stereo not drawn) [Compound A0060] | – | – | – | – | – | – | 32.4 | 39 | 42 | 99.7 | 63.9 | 158.2 | 14.3 | 35.8 | 68.6 | – |
| COc1c2c(cc3c1C(CC(=O)Cc1ccc(C#N)cc1)[N+](C)(C)CC3)OCO2 (stereo not drawn) [Compound B0012] | 97.8 | 167.4 | 145.1 | 278.5 | 79.4 | 212.0 | 39.4 | 46.9 | 51.7 | – | – | – | – | – | – | – |
| OC(COc1ccc(Br)c(F)c1)CN1CCc2ccccc2C1 (stereo not drawn) [Compound A0057] | – | – | – | – | – | – | – | – | – | 124.2 | 79.6 | 192.1 | 44.8 | 112.3 | 83.3 | inhibition at 0.01 µM [1, 14]: 29.1%; inhibition at 0.1 µM [1, 15]: 37%; inhibition at 1 µM [1, 16]: 43.4% |
| OC(COc1cccc(C(F)(F)F)c1)CN1CCc2ccccc2C1 (stereo not drawn) [Compound A0054] | – | – | – | – | – | – | – | – | – | 74.9 | 44.4 | 159.2 | 114.1 | 348.9 | 63.9 | inhibition at 0.01 µM [1, 14]: 28.7%; inhibition at 0.1 µM [1, 15]: 35.8%; inhibition at 1 µM [1, 16]: 41.4% |
| O=S(=O)(c1ccccc1)N1CCC2(CC1)OCCN2S(=O)(=O)c1ccccc1 [Compound C0016] | – | – | – | – | – | – | 38.3 | 43.8 | 49.1 | – | – | – | – | – | – | % DAMGO (0.1 μM) (mu opiate receptor (MOR); Series C-1, 0.1 μM compound, relative to DAMGO): 100.4%; Concentration of FLNA-Binding Compound as Agonist 0.1 μM (mu opiate receptor (MOR); Series C-1, 0.1 μM compound, [35S]GTPγS binding to Gαo, striatal membranes): 172.7%; Concentration of FLNA-Binding Compound as Agonist 1 μM + BFNA (mu opiate receptor (MOR); Series C-1, 1 μM compound + 1 μM β-FNA): 96.7%; % DAMGO + BFNA (mu opiate receptor (MOR); Series C-1, 1 μM compound + β-FNA, relative to DAMGO + BFNA): 150.9%; % DAMGO (1 μM) (mu opiate receptor (MOR); Series C-1, 1 μM compound, relative to DAMGO): 83.3%; Concentration of FLNA-Binding Compound as Agonist 1 μM (mu opiate receptor (MOR); Series C-1, 1 μM compound, [35S]GTPγS binding to Gαo, striatal membranes): 230.5% |
| COCOc1ccc(CCC(=O)CC2c3c(cc4c(c3OC)OCO4)CC[N+]2(C)C)cc1 (stereo not drawn) [Compound B0040] | 93.2 | 146.0 | 55.3 | 169.6 | 105.1 | 243.3 | 40 | 53.1 | 57.1 | – | – | – | – | – | – | – |
